The NIST ThermoML archive (doi:10.1016/j.jct.2019.03.035)

Test: molar heat capacity at constant pressure; xn = mol fraction of the nth substance listed
Conditions: 100 kPa, Liquid, DSC, x1 = 0.53

N#Cc1ccccc1 [benzonitrile] + CCCCCCCCCC
Conditions	molar heat capacity at constant pressure [J/K/mol]
281.74 K	261.8
281.89 K	260.4
282.04 K	262.8
282.19 K	264
282.34 K	264.4
282.48 K	263.4
282.63 K	264
282.78 K	263.3
282.93 K	263.9
283.08 K	266.3
283.23 K	265.2
283.38 K	266.7
283.52 K	266.3
283.67 K	268.2
283.82 K	266.5
283.97 K	267.5
284.12 K	266.6
284.26 K	265.9
284.41 K	266.6
284.56 K	268
284.71 K	266.6
284.86 K	268.5
285.01 K	265.8
285.16 K	269.9
285.3 K	270.2
285.45 K	268.9
285.6 K	269.8
285.75 K	271.8
285.9 K	271.1
286.05 K	270.5
286.19 K	273.2
286.34 K	273.4
286.49 K	278.6
286.64 K	283.9
286.79 K	282.2
286.94 K	285.9
287.09 K	285.2
287.23 K	307.6
287.38 K	254
287.53 K	250.3
287.68 K	248.6
287.83 K	246.7
287.98 K	247.4
288.12 K	245.8
288.27 K	246
288.42 K	245.6
288.57 K	244.9
288.72 K	244.8
288.87 K	244.5
289.01 K	244.3
289.16 K	243.6
289.31 K	244.2
289.46 K	243.9
289.61 K	244.1
289.76 K	243.4
289.9 K	243.5
290.05 K	243.5
290.2 K	243.2
290.35 K	243.1
290.5 K	243.2
290.65 K	243.1
290.83 K	243
290.98 K	241.8
291.13 K	243
291.28 K	243.4
291.43 K	242.8
291.57 K	242.5
291.72 K	242.7
291.87 K	242.8
292.02 K	242.4
292.17 K	242.1
292.32 K	241.7
292.46 K	242.5
292.61 K	242.1
292.76 K	241.7
292.91 K	242.6
293.06 K	242
293.21 K	242.1
293.36 K	242.4
293.5 K	241.7
293.65 K	242.3
293.8 K	242.2
293.95 K	242.1
294.1 K	241.7
294.25 K	241.9
294.39 K	241.8
294.54 K	242.1
294.69 K	242.1
294.84 K	242.3
294.99 K	241.7
295.14 K	242.2
295.29 K	242.1
295.43 K	241.7
295.58 K	242
295.73 K	242.1
295.88 K	242.8
296.03 K	242.1
296.18 K	242.8
296.32 K	242.2
296.47 K	241.8
296.62 K	241.1
297.05 K	242.4
297.34 K	242.5
297.62 K	242.5
297.91 K	242.4
298.19 K	242.5
298.47 K	242.7
298.76 K	242.6
299.04 K	242.7
299.32 K	242.8
299.61 K	242.9
299.89 K	242.9
300.18 K	243
300.46 K	243.1
300.74 K	243
301.03 K	243
301.31 K	243.1
301.6 K	243.2
301.88 K	243.2
302.16 K	243.3
302.45 K	243.4
302.73 K	243.5
303.01 K	243.5
303.3 K	243.6
303.58 K	243.7
303.87 K	243.7
304.15 K	243.8
304.43 K	243.9
304.72 K	243.9
305 K	244.1
305.29 K	244.1
305.57 K	244
305.85 K	244.2
306.14 K	244.3
306.42 K	244.3
306.7 K	244.4
306.99 K	244.5
307.27 K	244.6
307.56 K	244.6
307.84 K	244.7
308.12 K	244.9
308.41 K	244.8
308.69 K	244.9
308.98 K	245.1
309.26 K	245
309.54 K	245.1
309.83 K	245.2
310.11 K	245.4
310.39 K	245.5
310.68 K	245.5
310.96 K	245.5
311.25 K	245.7
311.53 K	245.7
311.81 K	245.8
312.1 K	245.9
312.38 K	246
312.67 K	246
312.95 K	246.1
313.23 K	246.3
313.52 K	246.2
313.8 K	246.5
314.08 K	246.5
314.37 K	246.6
314.65 K	246.5
314.94 K	246.7
315.22 K	246.8
315.5 K	246.9
315.79 K	246.9
316.07 K	247
316.36 K	247.1
316.64 K	247.3
316.92 K	247.4
317.21 K	247.5
317.49 K	247.5
317.77 K	247.6
318.06 K	247.7
318.34 K	247.7
318.63 K	247.8
318.91 K	248
319.19 K	248.1
319.48 K	248.2
319.76 K	248.2
320.05 K	248.3
320.33 K	248.4
320.61 K	248.5
320.9 K	248.5
321.18 K	248.6
321.46 K	248.7
321.75 K	248.9
322.03 K	249
322.32 K	249
322.6 K	249.1
322.88 K	249.3
323.17 K	249.3
323.45 K	249.5
323.74 K	249.5
324.02 K	249.6
324.3 K	249.7
324.59 K	249.9
324.87 K	250.1
325.16 K	250.2
325.44 K	250.1
325.72 K	250.1
